Data: PubChem BioAssay (NCI)
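Assay format: 96-well plates, 48-hour exposure. TGI: concentration producing complete growth inhibition.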

Key:
Assay in all cases: inhibition of tumour cell growth, NCI panel, 48 h
[1] = test system: HT29 colon
[2] = test system: K-562 leukemia
[3] = test system: SN12C renal
[4] = test system: DMS 114 small cell lung
[5] = test system: MOLT-4 leukemia
[6] = test system: UO-31 renal
[7] = test system: NCI-H226 lung
[8] = test system: SR leukemia
[9] = test system: IGROV1 ovarian
[10] = test system: CAKI-1 renal
[11] = test system: SK-MEL-28 melanoma
[12] = test system: COLO 205 colon
[13] = test system: LOX IMVI melanoma
[14] = test system: RXF 393 renal
[15] = test system: CCRF-CEM leukemia
[16] = test system: OVCAR-5 ovarian
[17] = test system: A549 NSCLC
[18] = test system: SK-MEL-5 melanoma
[19] = test system: M14 melanoma
[20] = test system: NCI-H522 lung
[21] = test system: OVCAR-4 ovarian
[22] = test system: EKVX NSCLC
[23] = test system: M19-MEL melanoma
[24] = test system: SK-OV-3 ovarian
[25] = test system: SF-539 CNS
[26] = test system: A498 renal
[27] = test system: KM20L2 colon
[28] = test system: 786-0 renal
[29] = test system: TK-10 renal
[30] = test system: SNB-78 CNS
[31] = test system: U251 CNS
[32] = test system: UACC-257 melanoma
[33] = test system: HCT-15 colon
[34] = test system: HL-60(TB) leukemia
[35] = test system: SF-295 CNS
[36] = test system: RPMI-8226 leukemia
[37] = test system: DMS 273 small cell lung
[38] = test system: HCT-116 colon
[39] = test system: ACHN renal
[40] = test system: HCC-2998 colon
[41] = test system: NCI-H23 lung
[42] = test system: MALME-3M melanoma
[43] = test system: SNB-19 CNS
[44] = test system: OVCAR-8 ovarian
[45] = test system: SNB-75 CNS
[46] = test system: UACC-62 melanoma
[47] = test system: SK-MEL-2 melanoma
[48] = test system: OVCAR-3 ovarian
[49] = test system: HOP-62 NSCLC
[50] = test system: NCI-H460 lung
[51] = test system: SF-268 CNS
[52] = test system: KM12 colon
[53] = test system: SW-620 colon
[54] = test system: HOP-92 NSCLC
[55] = test system: NCI/ADR-RES ovarian
[56] = test system: BT-549 breast
[57] = test system: HS 578T breast
[58] = test system: MCF7 breast
[59] = test system: T-47D breast
[60] = test system: DU-145 prostate
[61] = test system: MDA-MB-231 breast
[62] = test system: MDA-N
[63] = test system: MDA-MB-435
[64] = test system: PC-3 prostate

CC(=O)OC1CCC2OOC1O2 (configuration not stated)
TGI [1]: > 100 µM
TGI [2]: > 100 µM
TGI [3]: > 100 µM
TGI [4]: > 100 µM
TGI [5]: > 100 µM
TGI [6]: > 100 µM
TGI [7]: > 100 µM
TGI [8]: > 100 µM
TGI [9]: > 100 µM
TGI [10]: > 100 µM
TGI [11]: > 100 µM
TGI [12]: > 100 µM
TGI [13]: > 100 µM
TGI [14]: > 100 µM
TGI [15]: > 100 µM
TGI [16]: > 100 µM
TGI [17]: > 100 µM
TGI [18]: > 100 µM
TGI [19]: > 100 µM
TGI [20]: > 100 µM
TGI [21]: > 100 µM
TGI [22]: > 100 µM
TGI [23]: > 100 µM
TGI [24]: > 100 µM
TGI [25]: > 100 µM
TGI [26]: > 100 µM
TGI [27]: > 100 µM
TGI [28]: > 100 µM
TGI [29]: > 100 µM
TGI [30]: > 100 µM
TGI [31]: > 100 µM
TGI [32]: > 100 µM
TGI [33]: > 100 µM
TGI [34]: > 100 µM
TGI [35]: > 100 µM
TGI [36]: > 100 µM
TGI [37]: > 100 µM
TGI [38]: > 100 µM
TGI [39]: > 100 µM
TGI [40]: > 100 µM
TGI [41]: > 100 µM
TGI [42]: > 100 µM
TGI [43]: > 100 µM
TGI [44]: > 100 µM
TGI [45]: > 100 µM
TGI [46]: > 100 µM
TGI [47]: > 100 µM
TGI [48]: > 100 µM
TGI [49]: > 100 µM
TGI [50]: > 100 µM
TGI [51]: > 100 µM
TGI [52]: > 100 µM
TGI [53]: > 100 µM

CCCC(=O)OCC1OC(n2cc(F)c(=O)[nH]c2=O)CC1O (configuration not stated)
TGI [54]: > 10 µM
TGI [1]: > 10 µM
TGI [2]: > 10 µM
TGI [3]: > 10 µM
TGI [55]: > 10 µM
TGI [5]: > 10 µM
TGI [6]: > 10 µM
TGI [56]: > 10 µM
TGI [7]: > 10 µM
TGI [8]: > 10 µM
TGI [9]: > 10 µM
TGI [10]: > 10 µM
TGI [11]: > 10 µM
TGI [12]: > 10 µM
TGI [13]: > 8.79 µM
TGI [14]: > 10 µM
TGI [15]: > 10 µM
TGI [16]: > 10 µM
TGI [17]: > 10 µM
TGI [18]: 1.35 µM
TGI [57]: > 10 µM
TGI [19]: > 10 µM
TGI [20]: > 10 µM
TGI [21]: > 10 µM
TGI [22]: > 10 µM
TGI [24]: > 10 µM
TGI [25]: 0.247 µM
TGI [26]: > 9.04 µM
TGI [28]: > 10 µM
TGI [29]: > 10 µM
TGI [31]: > 10 µM
TGI [32]: > 10 µM
TGI [33]: > 10 µM
TGI [58]: > 10 µM
TGI [59]: > 10 µM
TGI [34]: > 10 µM
TGI [35]: > 3.02 µM
TGI [36]: > 10 µM
TGI [38]: > 10 µM
TGI [39]: > 10 µM
TGI [60]: > 10 µM
TGI [40]: > 2.97 µM
TGI [41]: 1.66 µM
TGI [42]: > 10 µM
TGI [43]: > 10 µM
TGI [61]: > 10 µM
TGI [44]: > 10 µM
TGI [62]: > 10 µM
TGI [63]: > 10 µM
TGI [45]: 9.55 µM
TGI [46]: > 10 µM
TGI [47]: > 10 µM
TGI [48]: > 10 µM
TGI [49]: > 10 µM
TGI [50]: > 10 µM
TGI [51]: > 10 µM
TGI [52]: > 10 µM
TGI [53]: > 10 µM
TGI [64]: > 10 µM
